Results published in patent US9981940B2, “Aryl sulfide derivatives and aryl sulfoxide derivatives as acaricides and insecticides” (BAYER CROPSCIENCE AKTIENGESELLSCHAFT, priority 2013, dated 2018).

Tests used:
[1] = log P by HPLC (OECD Guideline 117), method [b] neutral range; format: physicochemical; conditions: HPLC; for chromatographic logP: reversed-phase C18 HPLC column, neutral range, pH 7.8; for logP[b]: method [b] neutral range
Method: (§1) The log P values were determined analogously to OECD Guideline 117 (EC Directive 92/69/EEC) by HPLC (high-performance liquid chromatography) using reversed-phase columns (C 18), by the following methods:
[b] The LC-MS determination in the neutral range is effected at pH 7.8 with 0.001 molar aqueous ammonium hydrogencarbonate solution and acetonitrile as eluents; linear gradient from 10% acetonitrile to 95% acetonitrile.

[2] = log P by HPLC (OECD Guideline 117), method [a] acidic range; format: physicochemical; conditions: for chromatographic logP: reversed-phase C18 HPLC column, acidic range; for logP[a]: HPLC, method [a] acidic range
Method: as §1
[a] The LC-MS determination in the acidic range is effected at pH 2.7 with 0.1% aqueous formic acid and acetonitrile (contains 0.1% formic acid) as eluents; linear gradient from 10% acetonitrile to 95% acetonitrile.

Tetranychus urticae = Tetranychus urticae spray test, OP-resistant (TETRUR); format: in vivo; conditions: application rate of 500 g/ha, after 6 days; for pest or weed control at 500 g/ha: Tetranychus urticae, 144 h, read-out: efficacy
Method: Tetranychus urticae—Spray Test, OP-Resistant (TETRUR)
• Solvent: 78.0 parts by weight of acetone • 1.5 parts by weight of dimethylformamide • Emulsifier: 0.5 part by weight of alkylaryl polyglycol ether
To produce an appropriate active ingredient formulation, 1 part by weight of active ingredient is mixed with the specified amounts of solvent and emulsifier, and the concentrate is diluted to the desired concentration with emulsifier-containing water.
Discs of bean leaves (Phaseolus vulgaris) infested by all stages of the greenhouse red spider mite (Tetranychus urticae) are sprayed with an active ingredient formulation of the desired concentration.
After 6 days, the efficacy in % is determined 100% means that all the spider mites have been killed; 0% means that none of the spider mites have been killed.

[3] = pH 2.7, HPLC method [a], read-out: logP[a]
[4] = pH 2.7, HPLC, pH 2.7, read-out: log P[a]

chromatographic logP [1] | chromatographic logP [2, 3] | chromatographic logP [2, 4] | logP[b] [1] | logP[a] [2] | Structure (SMILES) | pest or weed control at 500 g/ha (Tetranychus urticae) | efficacy (Tetranychus urticae)
1.84 | 1.88 | 1.88 | – | – | Cc1cc(F)c(-n2nc(S(C)(=O)=O)n(C)c2=O)cc1[S+]([O-])CC(F)(F)F (stereo not drawn) [Example 421, 2-{2-Fluoro-4-methyl-5-[(2,2,2-trifluoroethyl)sulphinyl]phenyl}-4-methyl-5-(methylsulphonyl)-2,4-dihydro-3H-1,2,4-triazol-3-one] | 100% | –
– | – | – | 4.39 | 4.43 | O=c1n(-c2ccc(Cl)c(SCC(F)(F)F)c2)nc(C(F)(F)F)n1C1CC1 [Example 51] | – | 90%
– | – | – | 2.12 | 2.17 | Cc1cc(F)c(-n2nc(N(C)C)n(C3CC3)c2=O)cc1[S+]([O-])CC(F)(F)F (racemic) [Example 194] | – | 100%
– | – | – | 4.11 | 4.17 | Cc1cc(F)c(-n2nc(C(C)(C)C)n(C3CC3)c2=O)cc1SCC(F)(F)F [Example 63] | – | 100%
– | – | – | 1.72 | 1.75 | Cc1cc(F)c(-n2nc(C3CC3)n(N)c2=O)cc1[S+]([O-])CC(F)(F)F (stereo not drawn) [Example 206] | – | 100%
– | – | – | 3.08 | 3.15 | Cc1cc(F)c(-n2nc(C(F)(F)F)n(N)c2=O)cc1SCC(F)(F)F [Example 205] | – | 100%
– | – | – | 3.03 | 3.06 | Cc1cc(F)c(-n2nc(C3CCCC3)n(C3CC3)c2=O)cc1[S+]([O-])CC(F)(F)F (stereo not drawn) [Example 360] | – | 90%
– | – | – | 2.97 | 2.95 | Cc1cc(F)c(-n2nc(C(C)(C)C)n(C3CC3)c2=O)cc1[S+]([O-])CC(F)(F)F (racemic) [Example 64] | – | 100%
– | – | – | 3.15 | 3.16 | COCCCn1c(OC)nn(-c2cc(SCC(F)(F)F)c(C)cc2F)c1=O [Example 388] | – | 90%
– | – | – | 4.13 | 4.18 | Cc1cc(F)c(-n2nc(Br)n(Cc3ccccc3)c2=O)cc1SCC(F)(F)F [Example 440] | – | 100%
3.73 | 3.75 | 3.75 | – | – | Cc1cc(F)c(-n2nc(C3CC3)n(N(C)C)c2=O)cc1SCC(F)(F)F [Example 195, 5-Cyclopropyl-4-(dimethylamino)-2-{2-fluoro-4-methyl-5-[(2,2,2-trifluoroethyl)sulphanyl]phenyl}-2,4-dihydro-3H-1,2,4-triazol-3-one] | 100% | –
– | – | – | 2.03 | 2.07 | CSc1nn(-c2cc([S+]([O-])CC(F)(F)F)c(C)cc2F)c(=O)n1C (stereo not drawn) [Example 260] | – | 100%
– | – | – | 3.40 | 3.45 | CCn1c(Cl)nn(-c2cc(SCC(F)(F)F)c(C)cc2F)c1=O [Example 434] | – | 100%
– | – | – | 2.81 | 2.84 | Cc1cc(F)c(-n2nc(N(C)C)n(C)c2=O)cc1SCC(F)(F)F [Example 190] | – | 90%
– | – | – | 2.89 | 2.97 | COCCc1nn(-c2cc(SCC(F)(F)F)c(C)cc2F)c(=O)n1C1CC1 [Example 75] | – | 100%
– | – | – | 2.36 | 2.38 | Cc1cc(F)c(-n2ncn(-c3ccccc3)c2=O)cc1[S+]([O-])CC(F)(F)F (racemic) [Example 357] | – | 90%
– | – | – | 2.10 | 2.08 | COCc1nn(-c2cc([S+]([O-])CC(F)(F)F)c(C)cc2F)c(=O)o1 (racemic) [Example 453] | – | 100%
3.53 | 3.58 | 3.58 | – | – | Cc1cc(F)c(-n2nc(C(F)(F)F)n(C)c2=O)cc1SCC(F)(F)F [Example 9, 2-{2-Fluoro-4-methyl-5-[(2,2,2-trifluoroethyl)sulphanyl]phenyl}-4-methyl-5-(trifluoromethyl)-2,4-dihydro-3H-1,2,4-triazol-3-one] | 100% | –
